The nature of this data set: recombinant UMI read abundance after kanamycin selection (control-corrected) (log10(CPM+1)); higher = more efficient recombination; extreme values may be limits of the assay; sequences stand for … in AGTGCAGAGAAAATCGGCCAGTTTTCTCTGCCTGCAGTCCGCATGCCGTGGGACCCCTTGGGTTCTAACCTGTTGCCTAGATTTATGCAGCGGACTGCCTTTCTCCCAAAGTGATAAACCGG…AGGTTGGTTTCACT; site = the 11-nt donor. The gist of the method: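 Reported values are log10(CPM+1) from a pooled Escherichia coli screen of donor and donor-binding-loop pairs for the IS621 bridge recombinase. Selection used IPTG (0.07 mM) plus kanamycin, against unselected plating, each in two replicates. Recombinant UMIs were amplified across the donor–target junction, sequenced, converted to CPM, averaged over replicates and scaled by control-derived factors.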
As for “CCTAAAACATGGACCGGTTTTCCCGGTAATCCGTATTTGAT (site CCTAAACCTAT)”, the “recombinant UMI read abundance (log10)” value came out at 0.00551.
With “CCTAAAACATGGACCGGTTTTCCCGGTAATCCGTATTTGAT (site CCTAAAGCTAT)” the figure was 0.00636; with “CCTAAAACATGGACCGGTTTTCCCGGTAATCCGTATTTGAT (site CCTAAATCTAT)”, 0.
The result for “CCTAAAACATGGACCGGTTTTCCCGGTAATCCGTATTTGGC (site CCTAAAACTGC)” reads 0; that for “CCTAAAACATGGACCGGTTTTCCCGGTAATCCGTATTTGGC (site CCTAACACTGC)”, 0.
With “CCTAAAACATGGACCGGTTTTCCCGGTAATCCGTATTTGGC (site CCTAAGACTGC)” the figure was 0.
As for “CCTAAAACATGGACCGGTTTTCCCGGTAATCCGTATTTGGC (site CCTAATACTGC)”, the “recombinant UMI read abundance (log10)” value is 0.
The result for “CCTAAAGCATGGACCGGTTTTCCCGGTAATCCGTATTTGGT (site CCTAAAGCTAA)” reads 0.00229.
With “CCTAAAGCATGGACCGGTTTTCCCGGTAATCCGTATTTGGT (site CCTAAAGCTAC)” the figure was 0; with “CCTAAAGCATGGACCGGTTTTCCCGGTAATCCGTATTTGGT (site CCTAAAGCTAG)”, 0; with “CCTAAAGCATGGACCGGTTTTCCCGGTAATCCGTATTTGGT (site CCTAAAGCTAT)”, 0.
With “CCTAATACATGGACCGGTTTTCCCGGTAATCCGTATTTGAC (site CCTAATACTGA)” the figure was 0.
In the case of “CCTAATACATGGACCGGTTTTCCCGGTAATCCGTATTTGAC (site CCTAATACTGC)”, the “recombinant UMI read abundance (log10)” value was found to be 0.
With “CCTAATACATGGACCGGTTTTCCCGGTAATCCGTATTTGAC (site CCTAATACTGG)” the figure was 0; with “CCTAATACATGGACCGGTTTTCCCGGTAATCCGTATTTGAC (site CCTAATACTGT)”, 0.
With “CCTAATTCATGGACCGGTTTTCCCGGTAATCCGTATTTGGC (site CCTAATACTGC)” the figure was 0.
With “CCTAATTCATGGACCGGTTTTCCCGGTAATCCGTATTTGGC (site CCTAATCCTGC)” the figure was 0; with “CCTAATTCATGGACCGGTTTTCCCGGTAATCCGTATTTGGC (site CCTAATGCTGC)”, 0; with “CCTAATTCATGGACCGGTTTTCCCGGTAATCCGTATTTGGC (site CCTAATTCTGC)”, 0.
As for “CCTAGAACATGGACCGGTTTTCCCGGTAATCCGTATTTGAG (site ACTAGAACTCT)”, the “recombinant UMI read abundance (log10)” value came out at 0.00253.
As for “CCTAGAACATGGACCGGTTTTCCCGGTAATCCGTATTTGAG (site CCTAGAACTCT)”, the “recombinant UMI read abundance (log10)” value is 0.00591.
With “CCTAGAACATGGACCGGTTTTCCCGGTAATCCGTATTTGAG (site GCTAGAACTCT)” the figure was 0.0133.
With “CCTAGAACATGGACCGGTTTTCCCGGTAATCCGTATTTGAG (site TCTAGAACTCT)” the figure was 0.00636; with “CCTAGAGCATGGACCGGTTTTCCCGGTAATCCGTATTTGTT (site CCTAGAGCTAA)”, 0.633.
In the case of “CCTAGGTCATGGACCGGTTTTCCCGGTAATCCGTATTTGCC (site CCTAGGTCTGG)”, the “recombinant UMI read abundance (log10)” value is 0.
With “CCTAGTGCATGGACCGGTTTTCCCGGTAATCCGTATTTGGT (site ACTAGTGCTAC)” the figure was 0.00584; with “CCTAGTGCATGGACCGGTTTTCCCGGTAATCCGTATTTGGT (site CCTAGTGCTAC)”, 0.533.
With “CCTAGTGCATGGACCGGTTTTCCCGGTAATCCGTATTTGGT (site GCTAGTGCTAC)” the figure was 0.0365.
With “CCTAGTGCATGGACCGGTTTTCCCGGTAATCCGTATTTGGT (site TCTAGTGCTAC)”, the “recombinant UMI read abundance (log10)” value amounted to 0.0125.
Consider “CCTATATCATGGACCGGTTTTCCCGGTAATCCGTATTTGTC (site CCAATATCTGA)”, for which the “recombinant UMI read abundance (log10)” value was 0.
With “CCTATATCATGGACCGGTTTTCCCGGTAATCCGTATTTGTC (site CCCATATCTGA)” the figure was 0.00678; with “CCTATATCATGGACCGGTTTTCCCGGTAATCCGTATTTGTC (site CCGATATCTGA)”, 0.
The result for “CCTATATCATGGACCGGTTTTCCCGGTAATCCGTATTTGTC (site CCTATATCTGA)” reads 0; that for “CCTCACACATGGACCGGTTTTCCCGGTAATCCGTATTTGTA (site CCACACACTTA)”, 0; that for “CCTCACACATGGACCGGTTTTCCCGGTAATCCGTATTTGTA (site CCCCACACTTA)”, 0.0116.
With “CCTCACACATGGACCGGTTTTCCCGGTAATCCGTATTTGTA (site CCGCACACTTA)” the figure was 0.0283.
“CCTCACACATGGACCGGTTTTCCCGGTAATCCGTATTTGTA (site CCTCACACTTA)”: the “recombinant UMI read abundance (log10)” value was found to be 0.166.
With “CCTCGAGCATGGACCGGTTTTCCCGGTAATCCGTATTTGTG (site CCTCGAGCTCA)” the figure was 0.234; with “CCTCTTGCATGGACCGGTTTTCCCGGTAATCCGTATTTGAG (site CCTCTTGCTCT)”, 0.0146; with “CCTCTTTCATGGACCGGTTTTCCCGGTAATCCGTATTTGAG (site CCTCTTTCTCT)”, 0.00323.
Regarding “CCTGAAGCATGGACCGGTTTTCCCGGTAATCCGTATTTGAT (site CCTAAAGCTAT)”, the “recombinant UMI read abundance (log10)” value turned out to be 0.231.
For “CCTGAAGCATGGACCGGTTTTCCCGGTAATCCGTATTTGAT (site CCTCAAGCTAT)”, the “recombinant UMI read abundance (log10)” value worked out at 0.
In the case of “CCTGAAGCATGGACCGGTTTTCCCGGTAATCCGTATTTGAT (site CCTGAAGCTAT)”, the “recombinant UMI read abundance (log10)” value is 0.209.
Regarding “CCTGAAGCATGGACCGGTTTTCCCGGTAATCCGTATTTGAT (site CCTTAAGCTAT)”, the “recombinant UMI read abundance (log10)” value was 0.
With “CCTGATACATGGACCGGTTTTCCCGGTAATCCGTATTTGGC (site CCTAATACTGC)” the figure was 0.
The result for “CCTGATACATGGACCGGTTTTCCCGGTAATCCGTATTTGGC (site CCTCATACTGC)” reads 0; that for “CCTGATACATGGACCGGTTTTCCCGGTAATCCGTATTTGGC (site CCTGATACTGC)”, 0; that for “CCTGATACATGGACCGGTTTTCCCGGTAATCCGTATTTGGC (site CCTTATACTGC)”, 0.
As to “CCTGCACCATGGACCGGTTTTCCCGGTAATCCGTATTTGGA (site CCTGCACCTTC)”, the “recombinant UMI read abundance (log10)” value was determined as 0.00678.
In the case of “CCTGCTACATGGACCGGTTTTCCCGGTAATCCGTATTTGCG (site CCTGCTACTCG)”, the “recombinant UMI read abundance (log10)” value is 0.0136.
With “CCTGGCACATGGACCGGTTTTCCCGGTAATCCGTATTTGAA (site CCTGGCACTTT)” the figure was 0.0111; with “CCTGGTGCATGGACCGGTTTTCCCGGTAATCCGTATTTGTA (site CCTGGTGCTTA)”, 0.698; with “CCTGTAGCATGGACCGGTTTTCCCGGTAATCCGTATTTGAG (site CCTGTAGCTCT)”, 0.443.
With “CCTGTATCATGGACCGGTTTTCCCGGTAATCCGTATTTGCA (site ACAGTATCTTG)”, the “recombinant UMI read abundance (log10)” value came out at 0.
As to “CCTGTATCATGGACCGGTTTTCCCGGTAATCCGTATTTGCA (site CCTGTATCTTG)”, the “recombinant UMI read abundance (log10)” value came to 0.
With “CCTGTCGCATGGACCGGTTTTCCCGGTAATCCGTATTTGAG (site CCTGTCGCTCT)”, the “recombinant UMI read abundance (log10)” value was 0.909.
The result for “CCTGTGGCATGGACCGGTTTTCCCGGTAATCCGTATTTGTA (site CCTGTGGCTTA)” reads 0.327; that for “CCTTAAGCATGGACCGGTTTTCCCGGTAATCCGTATTTGAT (site CCTAAAGCTAT)”, 0; that for “CCTTAAGCATGGACCGGTTTTCCCGGTAATCCGTATTTGAT (site CCTCAAGCTAT)”, 0.0107.
With “CCTTAAGCATGGACCGGTTTTCCCGGTAATCCGTATTTGAT (site CCTGAAGCTAT)” the figure was 0; with “CCTTAAGCATGGACCGGTTTTCCCGGTAATCCGTATTTGAT (site CCTTAAGCTAT)”, 0.00726.
With “CCTTAGACATGGACCGGTTTTCCCGGTAATCCGTATTTGAG (site CATTAGACTCT)” the figure was 0.0191; with “CCTTAGACATGGACCGGTTTTCCCGGTAATCCGTATTTGAG (site CCTTAGACTCT)”, 0.0167.
In the case of “CCTTAGACATGGACCGGTTTTCCCGGTAATCCGTATTTGAG (site CGTTAGACTCT)”, the “recombinant UMI read abundance (log10)” value was 0.0159.
The result for “CCTTAGACATGGACCGGTTTTCCCGGTAATCCGTATTTGAG (site CTTTAGACTCT)” reads 0.0107; that for “CCTTGTCCATGGACCGGTTTTCCCGGTAATCCGTATTTGCG (site CCTTGTCCTCG)”, 0.00291.
The result for “CCTTTACCATGGACCGGTTTTCCCGGTAATCCGTATTTGAA (site CCTTTACCTTT)” reads 0.019; that for “CCTTTCTCATGGACCGGTTTTCCCGGTAATCCGTATTTGCG (site CCTTTCTCTCG)”, 0.

The record behind these values is the supplement of paper PMC11208160.
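Further: IS621 bridge recombinase in Escherichia coli cells against a fixed T5 target plasmid.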
